Values joined by “and” are separate entries in the source; they are usually repeats but may differ in a detail not shown here. Equal entries are not always repeated. Where two headings read alike, the source gives them in different places.
What was measured:
[1] = test system: HIV-1 NLRepRlucP373S ΔT371; experiment: microbe, parasite or virus in culture; type: cell-based; settings: for EC50: Human immunodeficiency virus 1, MC assay
V362I HIV-1 Gag VLPs = molecular target: T1, V362I HIV-1 Gag VLPs (Human immunodeficiency virus type 1 group M subtype B, UniProt P03348, V362I); experiment: biochemical; type: binding; design: Kd FC vs. WT: unit not given beside the values
T1 construct: constructed to encode full length HIV-1 LAI Gag; made in house; host or cells: 293T cells, transfected with pGagOpt plasmid

[2] = test system: HIV-1 NLRepRlucP373S V370A/Δ371T; experiment: microbe, parasite or virus in culture; type: cell-based; settings: for EC50: Human immunodeficiency virus 1, MC assay
[3] = test system: HIV-1 NLRepRlucP373S V362I; experiment: microbe, parasite or virus in culture; type: cell-based; settings: for EC50: Human immunodeficiency virus 1, V362I virus; for log10 reduction in virus, multiple cycle antiviral assay, maximal inhibition: V362I, calculated from MC MPI
WT HIV-1 Gag VLPs = molecular target: T2, WT HIV-1 Gag VLPs (Human immunodeficiency virus type 1 group M subtype B, UniProt P03348); experiment: SPA radiolabeled competition binding assay, WT VLPs; design: Kd FC vs. WT: unit not given beside the values
T2 construct: constructed to encode full length HIV-1 LAI Gag; made in house; host or cells: 293T cells, transfected with pGagOpt plasmid; VLPs pelleted from supernatant

[4] = test system: HIV-1 NLRepRlucP373S T371A; experiment: microbe, parasite or virus in culture; type: cell-based; settings: Human immunodeficiency virus 1, MC assay
[5] = test system: HIV-1 NLRepRlucP373S V370M; experiment: microbe, parasite or virus in culture; type: cell-based; settings: for EC50: Human immunodeficiency virus 1, MC assay
[6] = test system: HIV-1 NLRepRlucP373S ΔV370; experiment: microbe, parasite or virus in culture; type: cell-based; settings: for EC50: Human immunodeficiency virus 1; for log10 reduction in virus, multiple cycle antiviral assay, maximal inhibition: ΔV370, calculated from MC MPI
V370A HIV-1 Gag VLPs = molecular target: T3, V370A HIV-1 Gag VLPs (Human immunodeficiency virus type 1 group M subtype B, UniProt P03348, V370A); experiment: biochemical; type: binding; design: Kd FC vs. WT: unit not given beside the values
T3 construct: constructed to encode full length HIV-1 LAI Gag; made in house; host or cells: 293T cells, transfected with pGagOpt plasmid

[7] = test system: LAI pseudotyped NLRepRlucP373 Δenv; type: cell-based; settings: for Inhibition of luciferase production: compound added only at the infection stage (second step); for Inhibition of luciferase activity in the infection stage: compound added at the transfection step (first step)
[8] = from mean C24 and free fraction of 0.14
[9] = test system: HIV-1 NLRepRlucP373S V370A; type: cell-based; settings: for SC Assay MPI (%): V370A virus; for log10 reduction in virus, single cycle antiviral assay, maximal inhibition: V370A, calculated from SC MPI
[10] = molecular target: T4, CA/SP1 cleavage of WT Gag VLPs by HIV-1 protease (Human immunodeficiency virus type 1 group M subtype B, UniProt P03348); type: biochemical; settings: 3 μM MI
T4 construct: constructed to encode full length HIV-1 LAI Gag; made in house; host or cells: Gag VLPs from transfected 293T cells

[11] = molecular target: CA/SP1 cleavage of ΔV370 Gag VLPs by HIV-1 protease (Human immunodeficiency virus type 1 group M subtype B, UniProt P03348, DEL370-370); experiment: HIV-1 VLP protease cleavage assay (LC/MS), ΔV370 VLPs; type: biochemical; settings: 3 μM MI
[12] = test system: HIV-1 NLRepRlucP373S V370A; experiment: microbe, parasite or virus in culture; type: cell-based; settings: for EC50: Human immunodeficiency virus 1, V370A virus; for log10 reduction in virus, multiple cycle antiviral assay, maximal inhibition: V370A, calculated from MC MPI
HIV-1 = settings: cited from earlier work
[13] = test system: HIV-1 NLRepRlucP373S (WT); type: cell-based; settings: for SC Assay MPI (%): WT virus; for log10 reduction in virus, single cycle antiviral assay, maximal inhibition: WT, calculated from SC MPI
[14] = test system: HIV-1 NLRepRlucP373S ΔV370; type: cell-based; settings: for log10 reduction in virus, single cycle antiviral assay, maximal inhibition: ΔV370, calculated from SC MPI; for SC Assay MPI (%): ΔV370 virus
[15] = test system: HIV-1 NLRepRlucP373S (WT); experiment: microbe, parasite or virus in culture; type: cell-based; settings: for MC Assay MPI (%): maximal percent inhibition at two highest drug concentrations
ΔV370 HIV-1 Gag VLPs = ΔV370 HIV-1 Gag VLPs (Human immunodeficiency virus type 1 group M subtype B, UniProt P03348, DEL370-370); experiment: SPA radiolabeled competition binding assay, ΔV370 VLPs; design: Kd FC vs. WT: unit not given beside the values; settings: for Kd FC vs. WT: ΔV370 VLP
[16] = test system: HIV-1 NLRepRlucP373S Q369H; experiment: microbe, parasite or virus in culture; type: cell-based; settings: Human immunodeficiency virus 1, MC assay

Compound	EC50 [1] [nM]	Kd FC vs. WT (V362I HIV-1 Gag VLPs; V362I VLP)	EC50 [2] [nM]	EC50 ([3]; MC assay) [nM]	MC Assay MPI (%) ([3]; V362I virus)	Kd FC vs. WT (WT HIV-1 Gag VLPs; WT VLP)	EC50 [4] [nM]	EC50 [5] [nM]	EC50 ([6]; ΔV370 virus, MC assay) [nM]	MC Assay MPI (%) ([6]; ΔV370 virus)	Kd FC vs. WT (V370A HIV-1 Gag VLPs; V370A VLP)	Inhibition of luciferase production [7]	log10 reduction in virus, multiple cycle antiviral assay, maximal inhibition [3] [log10]	Inhibition of luciferase activity in the infection stage [7]	SC Assay MPI (%) [9]	log10 reduction in virus, single cycle antiviral assay, maximal inhibition [9] [log10]	Inhibition of CA/SP1 cleavage ([10]; 4 hours)	log10 reduction in virus, multiple cycle antiviral assay, maximal inhibition [6] [log10]	MC Assay MPI (%) ([12]; V370A virus)	SC Assay MPI (%) [13]	other results
C=C(C)[C@@H]1CC[C@]2(C(=O)O)CC[C@]3(C)[C@H](CC[C@@H]4[C@@]5(C)CC=C(c6ccc(C(=O)O)cc6)C(C)(C)[C@@H]5CC[C@]43C)[C@@H]12 [BMS-1]	292	1.9	> 10000	213	71.4 +/- 5.4% and 71.4%	1.0	28	> 4000	> 6000	3.7 +/- 2.9% and 3.7%	7.0										Kd (V362I HIV-1 Gag VLPs; V362I VLP, competition displacement of [3H]-BMS-977660, read-out: Kd): 49 nM; Kd (WT HIV-1 Gag VLPs; WT VLP, competition displacement of [3H]-BMS-977660, read-out: Kd): 25.4 nM; Kd (V370A HIV-1 Gag VLPs; V370A VLP, competition displacement of [3H]-BMS-977660, read-out: Kd): 177 nM
COc1ccnc2[nH]cc(C(=O)C(=O)N3CCN(C(=O)c4ccccc4)C[C@H]3C)c12 [BMS-378806, 4-benzoyl-1-[(4-methoxy-1H-pyrrolo[2,3-b]pyridin-3-yl)oxoacetyl]-2-(R)-methylpiperazine]												fully active									
C=C(C)[C@@H]1CC[C@]2(NCCN3CCS(=O)(=O)CC3)CC[C@]3(C)[C@H](CC[C@@H]4[C@@]5(C)CC=C(c6ccc(C(=O)O)cc6)C(C)(C)[C@@H]5CC[C@]43C)[C@@H]12 [BMS-955176]	7.3	1.3	6.6	4.5	93.8 +/- 1.8% and 93.8%	1.0	2	2.8	13	91.9 +/- 4.4% and 92% and 91.9%	2		-1.20	inhibiting luciferase production only when added in the first step	76.5 +/- 3.0% and 76.5%	-0.64	sustained inhibition	-1.09	98.2 +/- 1.3% and 98.2%	93.0 +/- 2.5% and 93%	Mean free concentration [8]: 213 nM; Kd (V362I HIV-1 Gag VLPs): 4.3 nM; Kd (WT HIV-1 Gag VLPs): 3.2 nM; Kd (V370A HIV-1 Gag VLPs): 6.5 nM; Inhibition of CA/SP1 cleavage ([11]; 4 hour time point): 13%; EC50 ([12]; MC assay): 2.7 nM; log10 reduction in virus, multiple cycle antiviral assay, maximal inhibition [12]: -1.73 log10; Clinical VLR, maximal median HIV-1 log10 RNA reduction (HIV-1; subtype B Gag polymorphs (compared to V370A, V362I), 40 mg): -1.71 log10; Clinical VLR, maximal median HIV-1 log10 RNA reduction (HIV-1; subtype B WT genotype, 40 mg QD, 10 day monotherapy): -1.75 log10; Clinical VLR, maximal median HIV-1 log10 RNA reduction (HIV-1; subtype C viruses (compared to ΔV370), 40 mg): -1.35 log10; log10 reduction in virus, single cycle antiviral assay, maximal inhibition [13]: -1.15 log10; log10 reduction in virus, single cycle antiviral assay, maximal inhibition [14]: -0.27 log10; SC Assay MPI (%) [14]: 45.9%; MC Assay MPI (%) ([15]; WT virus): 100 +/- 0.4% and 100%; log10 reduction in virus, multiple cycle antiviral assay, maximal inhibition ([15]; WT, calculated from MC MPI): < -2.00 log10; Kd (ΔV370 HIV-1 Gag VLPs): 33.6 nM; Kd FC vs. WT (ΔV370 HIV-1 Gag VLPs): 10
C=C(C)[C@@H]1CC[C@]2(C(=O)O)CC[C@]3(C)[C@H](CC[C@@H]4[C@@]5(C)CC[C@H](OC(=O)CC(C)(C)C(=O)O)C(C)(C)[C@@H]5CC[C@]43C)[C@@H]12 [BVM, bevirimat, reference compound]		2.9			81.3 +/- 2.0% and 81.3%	1.0	40		> 10000	9.2+/- 6.3% and 9% and 9.2%	9.1		-0.73	inhibiting luciferase production only when added in the first step	19% and 19.0 +/- 3.5%	-0.08	1%	-0.04	65.4 +/- 3.8% and 65.4%	82.3 +/- 2.7% and 82% and 82.3%	EC50 [16]: 7 nM; Inhibition of CA/SP1 cleavage ([10]; 2 hours): 39%; Inhibition of CA/SP1 cleavage ([11]; whole time course): not inhibitory at any time point; log10 reduction in virus, multiple cycle antiviral assay, maximal inhibition [12]: -0.46 log10; log10 reduction in virus, single cycle antiviral assay, maximal inhibition [13]: -0.71 log10; log10 reduction in virus, single cycle antiviral assay, maximal inhibition [14]: 0.06 log10; SC Assay MPI (%) [14]: -26% and -25.6%; Kd FC vs. WT (ΔV370 HIV-1 Gag VLPs): 48
Cc1c(O)cccc1C(=O)N[C@@H](CSc1ccccc1)[C@H](O)CN1C[C@H]2CCCC[C@H]2C[C@H]1C(=O)NC(C)(C)C [NFV, nelfinavir, reference compound]	2		5.7	4.3	100%			4.5	5.2			luciferase production is not inhibited		luciferase activity is inhibited	99.0%				99.9%	99.3%	FC = EC50 (SDM)/EC50 (WT) ([1]; ΔT371 virus, MC assay): 0.5; FC = EC50 (SDM)/EC50 (WT) ([2]; MC assay): 1.3; FC = EC50 (SDM)/EC50 (WT) ([3]; V362I virus, MC assay): 1.0; FC = EC50 (SDM)/EC50 (WT) ([5]; V370M virus, MC assay): 1.0; FC = EC50 (SDM)/EC50 (WT) ([6]; ΔV370 virus, MC assay): 1.2; EC50 ([12]; MC assay): 4.1 nM; FC = EC50 (SDM)/EC50 (WT) ([12]; V370A virus, MC assay): 1.0; EC50 ([15]; Human immunodeficiency virus 1, WT virus, MC assay): 4.3 nM; FC = EC50 (SDM)/EC50 (WT) ([15]; WT virus, MC assay): 1.0; MC Assay MPI (%) ([15]; WT virus): 100%

Source: PMC5125710, “Mechanistic Studies and Modeling Reveal the Origin of Differential Inhibition of Gag Polymorphic Viruses by HIV-1 Maturation Inhibitors” (PLoS Pathogens, 2016)
